In this assay the test system is Weibliche Laborratten. As to the kind of experiment: Rat feeding test (Ratten-Fütterungsversuch, Beispiel A). It is filed as in vivo, Laborratten vom Typ SPF Wistar. The note with it: 25 ppm in feed ad lib, 13-day test, 12 female rats per group; relative to control without active substance = 100. From the text: Weibliche Laborratten 90-110 g schwer vom Typ SPF Wistar (Züchtung Hagemann) werden ad lib mit Standard Rattenfutter, das mit der gewünschten Menge Wirkstoff versetzt ist, gefüttert. Jeder Versuchsansatz wird mit Futter der identischen Charge durchgeführt, so daß Unterschiede in der Zusammensetzung des Futters die Vergleichbarkeit der Ergebnisse nicht beeinträchtigen können.
Die Ratten erhalten Wasser ad lib.
Jeweils 12 Ratten bilden eine Versuchsgruppe und werden mit Futter, das mit der gewünschten Menge Wirkstoff versetzt ist, gefüttert. Eine Kontrollgruppe erhält Futter ohne Wirkstoff. Das durchschnittliche Körpergewicht sowie die Streuung in den Körpergewichten der Ratten ist in jeder Versuchsgruppe gleich, so daß eine Vergleichbarkeit der Versuchsgruppen untereinander gewährleistet ist.
Während des 13-tägigen Versuchs werden Gewichtszunahme und Futterverbrauch bestimmt.
Es werden die aus der Tabelle ersichtlichen Ergebnisse erhalten: […]
For the molecule `CCOC(=O)c1c(NC(=O)OC)sc(C)c1CC` [Bsp. 1, 2-Aminomethoxycarbonyl-3-carbethoxy-4-ethyl-5-methylthiophen], the Gewichtszunahme is recorded as 119.
Then `CCCCCc1cc(C(=O)OCC)c(NC(=O)OC2CCCCC2)s1` [Bsp. 19], with 115; and `CCCCCc1cc(C(=O)OCC)c(NC(=O)Oc2ccccc2C)s1` [Bsp. 20], with 109; and `COC(=O)Nc1sc2c(c1C(=O)OC)CCCC2` [Bsp. 31], with 109.
The same measure for `CCOC(=O)c1cc(CC)sc1NC(=O)Oc1ccccc1` [Bsp. 56]: 116.

(Values after patent publication EP0216290A2, “Use of thienyl amines as agents with an output-accelerating effect; thienyl amine” (BAYER AG, priority 1985, dated 1987).)
